Reference: US20260217698A1 (BEYANG THERAPEUTICS CO., LTD., priority 2022, published 2026)
pIC50: −log10 of the molar value.

Tests used:
EGFR = target: T1, EGFR (Homo sapiens, UniProt P00533); assay: Kinase inhibition, Mobility Shift Assay/IMAP, EGFR; assay type: biochemical
T1 construct: purchased Carna 08-115
Outline: (§1)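 Substrate conversion (phosphorylated vs non-phosphorylated) read by mobility shift on Caliper EZ Reader II and converted to % inhibition relative to no-enzyme and DMSO controls. IC50 fitted from % inhibition versus log compound concentration.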

HUVEC cells = assay: Inhibition of VEGF-induced HUVEC cell proliferation, CellTiter Glo; assay type: cell-based; conditions: Homo sapiens, 20 ng/ml VEGF, 72 hours
Outline: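 HUVEC (4000/well) serum-starved overnight in RPMI-1640 with 5% FBS, compound added 1 h before VEGF (20 ng/ml final in controls). After 72 h at 37 °C, viable cells were quantified by CellTiter-Glo luminescence; % inhibition fitted against log concentration, DMSO+VEGF wells as high control and cell-free wells as low.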

VEGFR2 [1] = target: T2, VEGFR2 (Homo sapiens, UniProt P35968); assay: Kinase inhibition, Mobility Shift Assay/IMAP, VEGFR2; assay type: biochemical; set-up: purchased Carna 08-191
Outline: as §1
Target sequence in this assay (P35968 790-1356 limits assumed): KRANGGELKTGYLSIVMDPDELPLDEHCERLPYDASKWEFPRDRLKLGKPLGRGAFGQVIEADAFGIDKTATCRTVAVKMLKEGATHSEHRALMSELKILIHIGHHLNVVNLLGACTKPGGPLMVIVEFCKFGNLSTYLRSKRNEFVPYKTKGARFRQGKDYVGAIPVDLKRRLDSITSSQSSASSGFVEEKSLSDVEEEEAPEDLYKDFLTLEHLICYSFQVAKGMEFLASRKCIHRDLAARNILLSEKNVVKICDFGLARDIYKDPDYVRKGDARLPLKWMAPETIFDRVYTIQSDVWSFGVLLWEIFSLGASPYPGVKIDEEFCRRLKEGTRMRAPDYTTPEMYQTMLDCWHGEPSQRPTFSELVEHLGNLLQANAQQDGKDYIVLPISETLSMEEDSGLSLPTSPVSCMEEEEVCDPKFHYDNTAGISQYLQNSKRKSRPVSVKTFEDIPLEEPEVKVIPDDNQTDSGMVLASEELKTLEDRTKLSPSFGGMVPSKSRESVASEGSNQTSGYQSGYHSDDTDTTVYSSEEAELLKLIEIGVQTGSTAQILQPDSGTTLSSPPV

VEGFR2 [2] = target: T2, VEGFR2; assay: Inhibition of VEGF-induced VEGFR2 autophosphorylation (pVEGFR2) in HUVEC cells, ELISA; assay type: cell-based; set-up: endogenous in cells; host or cells: HUVEC; conditions: 50 ng/mL human VEGF, compound 1 h
Source text: Vascular endothelial growth factor receptor 2 (VEGFR2) is a primary receptor for VEGF-induced endothelial cell signaling. After ligand binding, VEGFR2 is autophosphorylated and activated. The main function of signaling from VEGFR2 is to induce vascularization during development and after tissue injury, and to bypass blocked blood vessels. Pathologically, VEGF and VEGFR2 are involved in tumor angiogenesis and vascular leakage. They are considered to be main participants in many different cancers and ocular diseases that accompany pathological neovascularization. This assay measured the ability of the compounds to inhibit VEGF-induced VEGFR2 autophosphorylation (pVEGFR2) in HUVEC cells by using ELISA.
Culture cells in a cell culture flask to reach a fusion degree of 60%-80% before cell inoculation. Dilute the cell suspension to […] with a pre-warmed complete medium. Add 80 μL of the cell suspension to all wells of a 96-well cell plate (Corning-3599); and incubate the plate overnight at 37° C. in the presence of 5% CO2. Dissolve the compound powder to 10 mM with DMSO and store it in a nitrogen cabinet. Compound dilution plate: Add a reference compound Ponatinib or a compound to be tested to a 96 V-well plate (Axygen-WIPP 2280) at concentrations achieved as follows: performing 3-fold gradient dilution starting from 5 mM (5 μL of 10 mM compound solution plus 5 μL of DMSO) for a total of 8 concentration points. […] Transfer 20 μL of the diluted compound from the intermediate plate to a cell plate. Then, incubate the cell plate for 1 h at 37° C. in the presence of 5% CO2. After the compound was treated for 1 h, add 25 μL of 250 ng/ml human VEGF at a final concentration of 50 ng/mL to a 96-well plate; and incubate the plate for 5 min at 37° C. in the presence of 5% CO2, centrifuge the plate for 10 min at 3,000 rpm, remove the medium and wash the cells once with 300 μL of pre-chilled DPBS per well. Then, centrifuge the plate for 10 min at 4,000 rpm, remove DPBS, and add 110 μL of pre-chilled 1× cell lysis buffer per well to the 96-well plate. Shake the plate for 40 min at 4° C. Then, freeze the plate in a refrigerator at −80° C. On the next day, remove the plate from the refrigerator at −80° C., thaw the plate, centrifuge the plate for 10 min at 3500 rpm, and add 100 μL of the supernatant per well to an ELISA plate. Seal the plate and incubate it for 2 h at 37° C. Wash the wells 4 times with 1× wash buffer. Add 100 μL of recombinant detection antibody per well. Seal the plate, incubate the plate for 1 h at 37° C., and repeat the step of plate washing. Add 100 μL of secondary antibody per well. Seal the plate, incubate the plate for 30 min at 37° C., and repeat the step of plate washing. Add 100 μL of TMB (protected from light) per well. Seal the plate, incubate the plate for 30 min at 37° C., and add 100 μL of the stop solution per well. Gently shake for 30 sec, measure the absorbance with a SpectraMax® 340 PC 384 Absorbance Microplate Reader within 30 min, and read an optical density value at 450 nm. Conduct data analysis using XL Fit software:
Conduct curve fitting using the 4 Parameter Logistic Model or Sigmoidal Dose-Response Model to obtain IC50 values.
X indicates the log value of compound concentration, Y indicates the inhibition rate (% inhibition), Top indicates the readout of the negative control wells, and Bottom indicates the readout of the positive control well.
Target sequence in this assay (P35968 20-1356): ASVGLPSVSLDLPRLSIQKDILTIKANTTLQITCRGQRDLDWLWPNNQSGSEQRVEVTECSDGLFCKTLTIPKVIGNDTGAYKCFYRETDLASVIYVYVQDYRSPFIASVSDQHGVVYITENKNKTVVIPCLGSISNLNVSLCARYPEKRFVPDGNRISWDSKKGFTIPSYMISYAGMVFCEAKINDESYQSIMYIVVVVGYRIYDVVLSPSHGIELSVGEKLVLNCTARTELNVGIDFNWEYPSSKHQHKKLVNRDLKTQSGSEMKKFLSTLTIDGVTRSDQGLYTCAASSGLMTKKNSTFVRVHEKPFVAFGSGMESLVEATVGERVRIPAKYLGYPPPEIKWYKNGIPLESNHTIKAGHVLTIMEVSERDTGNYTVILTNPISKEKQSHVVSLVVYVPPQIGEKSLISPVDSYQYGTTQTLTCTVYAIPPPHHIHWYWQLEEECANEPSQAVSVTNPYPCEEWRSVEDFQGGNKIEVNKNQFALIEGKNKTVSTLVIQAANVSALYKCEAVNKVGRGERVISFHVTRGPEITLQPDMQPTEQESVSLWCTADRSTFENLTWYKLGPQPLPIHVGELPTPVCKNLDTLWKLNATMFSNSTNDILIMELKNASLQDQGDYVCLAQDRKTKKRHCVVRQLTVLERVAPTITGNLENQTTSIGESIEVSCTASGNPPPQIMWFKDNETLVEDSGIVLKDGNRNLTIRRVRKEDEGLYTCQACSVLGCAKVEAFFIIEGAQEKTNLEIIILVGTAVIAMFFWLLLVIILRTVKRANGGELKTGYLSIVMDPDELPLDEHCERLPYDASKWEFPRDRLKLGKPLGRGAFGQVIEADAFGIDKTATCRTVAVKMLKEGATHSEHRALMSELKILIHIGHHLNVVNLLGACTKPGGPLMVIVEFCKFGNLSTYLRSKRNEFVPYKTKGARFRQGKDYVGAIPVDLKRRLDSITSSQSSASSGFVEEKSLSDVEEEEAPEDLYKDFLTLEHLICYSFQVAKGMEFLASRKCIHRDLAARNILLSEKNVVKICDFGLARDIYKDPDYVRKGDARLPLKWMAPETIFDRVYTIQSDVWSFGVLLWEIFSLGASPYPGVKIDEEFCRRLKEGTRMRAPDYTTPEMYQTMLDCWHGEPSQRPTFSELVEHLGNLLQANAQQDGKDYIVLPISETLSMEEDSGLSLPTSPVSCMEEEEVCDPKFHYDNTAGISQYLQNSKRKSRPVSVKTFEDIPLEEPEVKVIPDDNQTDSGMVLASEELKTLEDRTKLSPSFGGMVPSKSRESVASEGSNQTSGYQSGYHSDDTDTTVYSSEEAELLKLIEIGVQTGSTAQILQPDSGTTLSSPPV

T1 sequence (P00533 669-1210 limits assumed): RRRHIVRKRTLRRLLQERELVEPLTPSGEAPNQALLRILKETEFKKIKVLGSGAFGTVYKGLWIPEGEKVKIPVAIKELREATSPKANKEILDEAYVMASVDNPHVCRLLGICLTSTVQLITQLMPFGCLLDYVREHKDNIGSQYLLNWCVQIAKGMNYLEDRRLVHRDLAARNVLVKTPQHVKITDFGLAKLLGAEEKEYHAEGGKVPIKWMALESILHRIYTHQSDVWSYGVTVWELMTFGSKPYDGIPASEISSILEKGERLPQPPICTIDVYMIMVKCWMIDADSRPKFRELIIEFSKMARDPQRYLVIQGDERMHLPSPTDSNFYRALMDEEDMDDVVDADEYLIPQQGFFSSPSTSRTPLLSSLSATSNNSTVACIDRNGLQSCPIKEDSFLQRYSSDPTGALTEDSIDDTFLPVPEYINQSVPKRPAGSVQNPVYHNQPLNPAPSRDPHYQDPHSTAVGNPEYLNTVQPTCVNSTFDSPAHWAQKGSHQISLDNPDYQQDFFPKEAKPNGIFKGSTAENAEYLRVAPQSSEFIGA

| SMILES | pIC50 (EGFR) | pIC50 (HUVEC cells) | pIC50 (VEGFR2 [1]) | pIC50 (VEGFR2 [2]) |
| --- | --- | --- | --- | --- |
| NC(=O)c1c(OCc2cc(C(=O)NC3CC3)ccc2F)nsc1NC(=O)NCCCCN1CCCC1 [Compound T087, 3-[[5-(cyclopropylcarbamoyl)-2-fluoro-phenyl]methoxy]-5-(4-pyrrolidin-1-ylbutylcarbamoylamino)isothiazole-4-carboxamide] | 4.82 | 7.34 | 8.78 | 7.52 |
| NC(=O)c1c(OCc2cc3c(cc2F)CCO3)nsc1NC(=O)NCCCCN1CC[C@@H](O)C1 [Compound T091, 3-[(5-fluoro-2,3-dihydrobenzofuran-6-yl)methoxy]-5-[4-[(3R)-3-hydroxypyrrolidin-1-yl]butylcarbamoylamino] isothiazole-4-carboxamide] | 5.00 | 7.44 | 8.52 | 7.06 |
| CN1CCN(CCCNC(=O)Nc2snc(OCc3cc4c(cc3F)CCO4)c2C(N)=O)CC1 [Compound T101, 3-[(5-fluoro-2,3-dihydrobenzofuran-6-yl)methoxy]-5-[3-(4-methylpiperazin-1-yl)propylcarbamoylamino] isothiazole-4-carboxamide] | 5.04 | 7.31 | 8.31 | 6.99 |
| NC(=O)c1c(OCc2cc(C(=O)NC3CC3)ccc2F)nsc1NC(=O)NCCCN1CC[C@H](F)C1 [Compound T116, 3-[[5-(cyclopropylcarbamoyl)-2-fluoro-phenyl]methoxy]-5-[3-[(3S)-3-fluoropyrrolidin-1-yl]propylcarbamoylamino]isothiazole-4-carboxamide] | 4.75 | 7.68 | 8.94 | 7.21 |
| CN1CCN(CCCNC(=O)Nc2snc(OCc3cc(C(=O)NC4CC4)ccc3F)c2C(N)=O)CC1 [Compound T118, 3-[[5-(cyclopropylcarbamoyl)-2-fluoro-phenyl]methoxy]-5-[3-(4-methylpiperazin-1-yl)propylcarbamoylamino]isothiazole-4-carboxamide] | 5.05 | 7.41 | 8.94 | 7.32 |
| NC(=O)c1c(OCc2cc(C(=O)NC3CC3)ccc2Cl)nsc1NC(=O)NCCCCN1CCCC1 [Compound T123, 3-[[2-chloro-5-(cyclopropylcarbamoyl)phenyl]methoxy]-5-(4-pyrrolidin-1-ylbutylcarbamoylamino)isothiazole-4-carboxamide] | 4.57 | 7.77 | 9.20 | 9.11 |
| NC(=O)c1c(OCc2c(F)ccc(C(=O)NC3CC3)c2F)nsc1NC(=O)NCCCCN1CCCC1 [Compound T124, 3-[[3-(cyclopropylcarbamoyl)-2,6-difluoro-phenyl]methoxy]-5-(4-pyrrolidin-1-ylbutylcarbamoylamino)isothiazole-4-carboxamide] | < 4.22 | 7.36 | 8.66 | 7.79 |
